Experimental data from ChEMBL document CHEMBL1201862, “PubChem BioAssay data set” (2004).
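How tested: cells in 96-well plates exposed to compound for 48 hours at five concentrations. Abbreviation: GI50, concentration required for 50% inhibition of growth.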 Calls of active or inactive are those of the source. Rule as the data show it: active = GI50 up to about 1.1 µM and inactive = higher.

What was measured:
Experiment in all cases: DTP human tumour cell line panel, 48 h
Malme-3M = system: Malme-3M
UACC-62 = system: UACC-62
OVCAR-4 = system: OVCAR-4
NCI-H460 = system: NCI-H460
EKVX = system: EKVX
786-0 = system: 786-0
M14 = system: M14
KM12 = system: KM12
RXF 393 = system: RXF 393
HCC 2998 = system: HCC 2998
HCT-116 = system: HCT-116
A549 = system: A549
HT-29 = system: HT-29
LOX IMVI = system: LOX IMVI
K562 = system: K562
OVCAR-5 = system: OVCAR-5
COLO 205 = system: COLO 205

Measured: GI50

CCC1CN2CCc3cc(OC)c(OC)cc3C2CC1CC1c2cc(OC)c(OC)cc2CCN1C(=O)C1CCCN1C(=O)OCc1ccccc1 (stereo not given)
inactive: Malme-3M 18.3 µM | UACC-62 16.1 µM | OVCAR-4 12.2 µM | NCI-H460 15.5 µM | EKVX 22.7 µM | 786-0 19.4 µM | M14 17.1 µM | KM12 16.3 µM | RXF 393 10.4 µM | HCC 2998 16.3 µM | HCT-116 13.1 µM | A549 18.9 µM | HT-29 14.1 µM | LOX IMVI 15 µM | K562 16.2 µM | OVCAR-5 18.1 µM

CN1CC[C@]2(C)c3ccc(O)cc3CC3CCCC1C32C (stereo not given in full)
inactive: Malme-3M > 100 µM | UACC-62 > 100 µM | NCI-H460 > 100 µM | EKVX > 100 µM | 786-0 > 100 µM | M14 > 100 µM | KM12 > 100 µM | RXF 393 > 100 µM | HCC 2998 > 100 µM | COLO 205 > 100 µM | HCT-116 > 100 µM | A549 > 100 µM | HT-29 > 100 µM | LOX IMVI > 100 µM | K562 > 100 µM | OVCAR-5 > 100 µM

CCN(CC)C(=O)c1c(Cl)cc(N(CC)CC)oc1=O
inactive: Malme-3M > 100 µM | UACC-62 > 100 µM | OVCAR-4 > 100 µM | NCI-H460 > 100 µM | EKVX > 100 µM | 786-0 > 100 µM | M14 > 100 µM | KM12 > 100 µM | RXF 393 > 100 µM | HCC 2998 > 100 µM | COLO 205 > 100 µM | HCT-116 > 100 µM | A549 > 100 µM | HT-29 > 100 µM | LOX IMVI > 100 µM | K562 > 100 µM

COc1ccc(OC)c(NC(=O)C(=O)CC(=O)c2sc(-n3nc(-c4ccccc4)cc3-c3ccccc3)nc2C)c1
inactive: Malme-3M > 100 µM | UACC-62 > 100 µM | OVCAR-4 > 100 µM | NCI-H460 > 100 µM | 786-0 > 100 µM | M14 > 100 µM | KM12 > 100 µM | RXF 393 > 100 µM | HCC 2998 > 100 µM | COLO 205 > 100 µM | HCT-116 > 100 µM | A549 > 100 µM | HT-29 > 100 µM | LOX IMVI > 100 µM | K562 > 100 µM | OVCAR-5 > 100 µM

CC(C)(C)C(=O)OCC(COC(=O)C(C)(C)C)[N+](=O)[O-]
inactive: Malme-3M > 100 µM | UACC-62 47.6 µM | OVCAR-4 > 100 µM | NCI-H460 > 100 µM | EKVX > 100 µM | 786-0 > 100 µM | M14 > 100 µM | KM12 > 100 µM | RXF 393 > 100 µM | HCC 2998 > 100 µM | COLO 205 57.1 µM | HCT-116 > 100 µM | A549 > 100 µM | HT-29 > 100 µM | LOX IMVI > 100 µM | K562 47.6 µM | OVCAR-5 > 100 µM

CC(C)C1CC2C(=O)N(c3ccccc3)C(=O)C2c2[nH]c3ccccc3c21 (stereo not given)
inactive: Malme-3M 25.8 µM | UACC-62 24.6 µM | OVCAR-4 2.32 µM | NCI-H460 4.63 µM | EKVX 61.7 µM | 786-0 21.1 µM | M14 38.5 µM | KM12 9.91 µM | RXF 393 21.3 µM | HCC 2998 > 100 µM | HCT-116 4.13 µM | A549 14.4 µM | HT-29 22.9 µM | K562 4.85 µM | OVCAR-5 > 100 µM

C[C@]12CC[C@@H]3c4ccccc4CC[C@H]3[C@@H]1CC[C@@H]2O
inactive: Malme-3M 44.2 µM | UACC-62 42.6 µM | NCI-H460 38.5 µM | EKVX 80.5 µM | 786-0 > 100 µM | M14 > 100 µM | KM12 68.7 µM | RXF 393 27.6 µM | HCC 2998 61.7 µM | COLO 205 73.8 µM | HCT-116 > 100 µM | A549 99.3 µM | LOX IMVI 77.4 µM | K562 32.1 µM

COC1(OC)CC2C(=O)N(Cc3ccccc3)C1C=C2S(=O)(=O)c1ccccc1 (stereo not given)
inactive: Malme-3M 20.4 µM | UACC-62 16.7 µM | OVCAR-4 20.5 µM | NCI-H460 18.2 µM | EKVX 15.6 µM | 786-0 19.7 µM | M14 16.1 µM | KM12 17.4 µM | RXF 393 12.7 µM | HCC 2998 19.5 µM | COLO 205 10.2 µM | HCT-116 13.8 µM | A549 21.9 µM | HT-29 18.5 µM | LOX IMVI 13.4 µM | K562 22.5 µM

C#CCOCn1cnc2c(Cl)ncnc21
inactive: Malme-3M > 100 µM | UACC-62 > 100 µM | OVCAR-4 > 100 µM | NCI-H460 > 100 µM | EKVX > 100 µM | 786-0 > 100 µM | M14 > 100 µM | KM12 > 100 µM | HCC 2998 > 100 µM | COLO 205 > 100 µM | HCT-116 > 100 µM | A549 > 100 µM | HT-29 > 100 µM | LOX IMVI 52.6 µM | K562 59.6 µM | OVCAR-5 > 100 µM

O=C(NCc1ccncc1)C1COc2cc(-c3cc(=O)c4ccccc4o3)ccc2O1 (stereo not given)
inactive: Malme-3M > 100 µM | UACC-62 > 100 µM | OVCAR-4 > 100 µM | NCI-H460 > 100 µM | EKVX > 100 µM | 786-0 > 100 µM | M14 > 100 µM | KM12 > 100 µM | RXF 393 > 100 µM | HCC 2998 > 100 µM | HCT-116 > 100 µM | A549 > 100 µM | HT-29 > 100 µM | LOX IMVI > 100 µM | K562 > 100 µM | OVCAR-5 > 100 µM

O=C1c2ccccc2C2(O)c3cc4ccccc4cc3OC12O (stereo not given)
inactive: Malme-3M 47.1 µM | UACC-62 47.2 µM | OVCAR-4 84.7 µM | NCI-H460 76.7 µM | EKVX 41.7 µM | 786-0 > 100 µM | M14 56.9 µM | KM12 46.8 µM | RXF 393 29.2 µM | HCC 2998 54 µM | COLO 205 > 100 µM | HCT-116 69 µM | A549 44.4 µM | HT-29 > 100 µM | LOX IMVI 68.5 µM | K562 46 µM | OVCAR-5 > 100 µM

CCSC(SCC)c1cc2c(cc1Br)OCO2
inactive: UACC-62 28.5 µM | OVCAR-4 57.8 µM | NCI-H460 18.5 µM | EKVX 31.8 µM | 786-0 33 µM | M14 16.9 µM | KM12 35.6 µM | RXF 393 26.7 µM | HCC 2998 17.8 µM | COLO 205 15.2 µM | HCT-116 18.7 µM | A549 28.6 µM | HT-29 16.8 µM | LOX IMVI 16.2 µM | K562 3.77 µM | OVCAR-5 27.2 µM

ClC1=C(Cl)C(Cl)(Cl)c2c3c(c4c(c21)C(Cl)(Cl)C(Cl)=C4Cl)C(Cl)(Cl)C(Cl)=C3Cl
inactive: Malme-3M > 100 µM | NCI-H460 > 100 µM | EKVX > 100 µM | 786-0 > 100 µM | M14 > 100 µM | KM12 > 100 µM | HCC 2998 > 100 µM | COLO 205 > 100 µM | HCT-116 > 100 µM | A549 > 100 µM | HT-29 > 100 µM | LOX IMVI > 100 µM | K562 > 100 µM

CC(=O)OCC1OC(n2c(-c3ccc(N)cc3)cc(-c3ccco3)c(C#N)c2=O)C(OC(C)=O)C(OC(C)=O)C1OC(C)=O (stereo not given)
inactive: Malme-3M > 50 µM | UACC-62 37.2 µM | OVCAR-4 38.5 µM | EKVX > 50 µM | 786-0 14.2 µM | M14 > 50 µM | KM12 7.29 µM | RXF 393 > 50 µM | HCC 2998 > 50 µM | COLO 205 > 50 µM | HCT-116 2.3 µM | A549 15.6 µM | HT-29 > 50 µM | LOX IMVI 8.04 µM | OVCAR-5 > 50 µM

N#C/C(=C\c1ccccc1F)C(=O)c1ccccc1
inactive: Malme-3M > 100 µM | UACC-62 > 100 µM | OVCAR-4 > 100 µM | EKVX > 100 µM | 786-0 > 100 µM | M14 > 100 µM | KM12 > 100 µM | HCC 2998 > 100 µM | COLO 205 > 100 µM | HCT-116 > 100 µM | A549 > 100 µM | HT-29 > 100 µM | LOX IMVI > 100 µM | K562 > 100 µM | OVCAR-5 > 100 µM

CC(=O)NN1C(=O)C(Cc2ccccc2)c2ccccc21 (stereo not given)
inactive: Malme-3M > 100 µM | UACC-62 > 100 µM | OVCAR-4 > 100 µM | NCI-H460 > 100 µM | EKVX > 100 µM | 786-0 > 100 µM | M14 > 100 µM | KM12 > 100 µM | HCC 2998 > 100 µM | COLO 205 > 100 µM | HCT-116 > 100 µM | A549 > 100 µM | HT-29 > 100 µM | LOX IMVI > 100 µM | K562 > 100 µM | OVCAR-5 > 100 µM

CC1(C2COC(=O)C2)SCCCS1 (stereo not given)
inactive: Malme-3M > 100 µM | UACC-62 > 100 µM | OVCAR-4 > 100 µM | NCI-H460 > 100 µM | EKVX > 100 µM | 786-0 > 100 µM | M14 > 100 µM | KM12 98.4 µM | RXF 393 > 100 µM | HCC 2998 > 100 µM | COLO 205 > 100 µM | HCT-116 > 100 µM | A549 > 100 µM | HT-29 > 100 µM | LOX IMVI > 100 µM
